This note sets out measurements from patent publication US7250551B2, “Transgenic mice expressing inducible human p25” (President and Fellows of Harvard College, priority 2002, dated 2007).

Data set [1] has as its system T668 phosphorylation on APP. Nature of the data set: Ionomycin-induced T668 phosphorylation of APP in primary hippocampal neurons, Western blot. Conditions: for T668 phosphorylation induced by ionomycin: 20 μM inhibitor 15 min before 4 μM ionomycin for 5 hours. Format: cell-based, rat. On the procedure: Primary hippocampal neurons were cultured as described from E18 rat embryos (Niethammer et al. (2000) Neuron 28:697). 8-day old cultures were treated with different concentrations of ionomycin (Calbiochem). In some cases, hippocampal neurons were incubated with either 20 μM roscovitine (Calbiochem) or 20 μM butyrolactone (Calbiochem) for 15 min at 37° C. before being treated with 4 μM ionomycin for 5 hours. Neurons were lysed in SDS sample buffer and lysates were separated on a 12% acrylamide gel and analyzed by Western blotting.
To determine if neurotoxic conditions influence APP phosphorylation, primary hippocampal neurons were treated with ionomycin.
(In western blotting, separated proteins are transferred to a membrane and probed.)

The subject of a further data set is rat cortical neurons. In words: MTT cell viability of rat cortical neurons expressing WT APP. In kind it is cell-based. As to conditions: rat cortical neurons expressing WT APP via HSV.
The test system of data set [2] is T668 phosphorylation of APP. Nature of the data set: T668 phosphorylation of full length APP in HSV-APP infected rat cortical neurons, Western blot. As to conditions: rat cortical neurons expressing WT APP via HSV, inhibitor 8 hours.
For data set [3], the system named is secreted Aβ(1-40) and Aβ(1-42). In words: Aβ secreted by rat primary cortical neurons infected with HSV expressing WT APP, sandwich ELISA. In kind it is cell-based. As to conditions: rat cortical neurons expressing WT APP via HSV, inhibitor 8 hours, dose-dependent, P<0.05.
Data set [4] deals with APP subcellular distribution. In words: Distribution of WT APP in iodixanol step gradient of primary cortical neuron homogenates. Conditions: roscovitine 15 μM for 8 hr (FIG. 18D). In kind it is cell-based, rat. The source says:
FIGS. 18A-18D depict co-fractionation of T668 phosphorylated APP with BACE1 and endosome markers. (A) Adult mouse brain lysate was fractionated through an iodixanol step gradient. […] (B) Quantification of protein distribution of A (fractions 1-20) showing that full length P-APP co-fractionates with BACE1. (C) Distribution of WT and T668A APP, expressed in rat primary cortical neurons using recombinant herpes simplex virus (HSV), in an iodixanol step gradient. The distribution pattern of BACE1 resembled that of WT APP. (D) Distribution of WT APP in an iodixanol step gradient after roscovitine treatment (15 μM for 8 hr).
FIGS. 25A-25B depict immunoblots showing distribution of APP and BACE1 in iodixanol step gradient. […] Twenty hours post infection, cell homogenates were fractionated through an iodixanol step gradient and the distributions of APP and BACE1 were analyzed. […] Cell homogenates were fractionated and the distributions of APP and BACE1 were analyzed by Western blot analysis.
To assess the significance of T668 phosphorylation in APP subcellular localization, WT APP and the T668A mutant APP were introduced into primary cortical neurons using recombinant herpes simplex virus (HSV). Twenty hours post infection, cell homogenates were fractionated through iodixanol step gradient and the distribution of APP in the collected fractions was analyzed. […]

Data set [5] has as its system primary neurons from APP(Sw) Tg mice. Nature of the data set: MTT cell viability of primary neurons from APP(Sw) Tg mice. Format: cell-based, mouse. Conditions: roscovitine 8 hours. On the procedure: Primary cortical neurons were cultured from E15 APP(Sw) Tg mice (Tg2576) (Hsiao et al. (1996) Science 274:99) as described (Niethammer et al. (2000) Neuron 28:697). 4-day-cultured neurons were replaced with new media (DMEM/F 12) and treated with different concentrations of roscovitine (Calbiochem) for 8 hours, or with butyrolactone (Calbiochem) for 16 hours. Aβ secreted into the media from each culture was analyzed by sandwich ELISA (Biosource) according to specifications by the manufacturer. Cell viability was measured by treating neurons with MTT (Sigma) at a final concentration of 0.5 mg/ml for 1 hour. After MTT treatment, cell medium was replaced with DMSO and the optical density of at 495 nm was determined.

Data set [6] has as its system secreted Aβ(1-40) and Aβ(1-42). Nature of the data set: Aβ secreted into media by primary neurons from APP(Sw) Tg mice, sandwich ELISA. Format: cell-based, mouse. As to conditions: roscovitine 8 hours. Here is the method:
FIGS. 7A-7F depict that inhibition of Cdk5 reduces Aβ generation in a Tg mouse model of AD. (A) Inhibition of Cdk5 lead to a decrease in Aβ secretion. Primary mixed hippocampal and cortical neurons were cultured from E17 APP (Swedish) (Sw) Tg mice. 4-day-cultured neurons were treated with the indicated concentration of roscovitine for 8 hours and assayed for the level of Aβ(1-40) secreted into the media. The level of secreted Aβ(1-40) was normalized against the untreated control. The data are the averages (±s.d.) from four independent experiments. (B) As in (A), but the level of Aβ(1-42) in the media was assayed instead. (C) Cell viability was measured using the MTT assay. Cell viability was normalized against the untreated control. […] (F) Cell viability was measured using the MTT assay.
Primary cortical neurons were cultured from E15 APP(Sw) Tg mice (Tg2576) (Hsiao et al. (1996) Science 274:99) as described (Niethammer et al. (2000) Neuron 28:697). […] Aβ secreted into the media from each culture was analyzed by sandwich ELISA (Biosource) according to specifications by the manufacturer. Cell viability was measured by treating neurons with MTT (Sigma) at a final concentration of 0.5 mg/ml for 1 hour. After MTT treatment, cell medium was replaced with DMSO and the optical density of at 495 nm was determined.
In general terms: In an ELISA, binding on a coated surface is turned into a signal by an enzyme label.

For `C[C@H](CCC(=O)O)C[C@H](C)C[C@H](C)C(=O)/C=C(\O)[C@H](C)C[C@H](C)C/C=C/[C@@H](C)[C@@H](O)[C@@H](C)[C@@H](O)C[C@@H]1CC[C@@](C)([C@H]2CC[C@@](C)([C@@H](C)O)O2)O1` [Ionomycin, ionomycin], the “T668 phosphorylation on APP” value in data set [1] (primary hippocampal neurons treated with ionomycin) is “marked elevation”.

As to `O=C1CCCO1` [butyrolactone], the “cell viability, MTT assay” value in the data set on rat cortical neurons is given as “not due to a decline in cell viability”. Further, the T668 phosphorylation entry in data set [2] is recorded as “substantial decreases”. Further, the “T668 phosphorylation induced by ionomycin” value in data set [1] is reported as “inhibited”. In data set [3], the “levels of secreted Aβ(1-40)” value is “significantly reduced” and the “levels of secreted Aβ(1-42)” value was “significantly reduced”.

Turning to `CC[C@H](CO)Nc1nc(NCc2ccccc2)c2ncn(C(C)C)c2n1` [roscovitine], the “cell viability, MTT assay” value in the data set on rat cortical neurons was “not due to a decline in cell viability”. For the same compound, the “APP distribution in iodixanol step gradient” value in data set [4] is recorded as “shifted to heavier membrane fractions”. Moreover, in data set [5], the “cell viability, MTT assay” value is “not due to a decline in cell viability”. Moreover, in data set [6], the “secreted beta-amyloid (1-40) (Aβ(1-40)) levels” value was “dose-dependent decrease” and the “secreted beta-amyloid (1-42) (Aβ(1-42)) levels” value is “also reduced”. In data set [2], the T668 phosphorylation result is “substantial decreases”. Further, in data set [1], the “T668 phosphorylation induced by ionomycin” value is “inhibited”. For the same compound, in data set [3], the “levels of secreted Aβ(1-40)” value is on record as “significantly reduced” and the “levels of secreted Aβ(1-42)” value is given as “significantly reduced”.
